Data on 3 molecules can be found in US9795587B2, “Compounds for enhancing hypoxia inducible factor activity and methods of use” (Cornell Research Foundation, Inc., priority 2005, dated 2017).

One assay deals with HIF-1 target genes. Kind of assay: Expression of HIF-1 target genes in rat cerebral cortex (real time RT-PCR). The class given is in vivo. The conditions noted are these: 100 mg/kg i.p., Sprague Dawley rats, FIG. 4. The procedure: HIF-1α protein levels were determined in nuclear extracts using a monoclonal anti-HIF-1α antibody (NOVUS Biologicals). Real time RT-PCR was performed in a ABI-7500 instruments using commercial Taqman gene expression assays (Applied BioSystems). Male Sprague Dawley rats, weighing 275-350 gm, were used in these experiments. For surgical procedures, anesthesia was induced with 5% isofluorane delivered in oxygen and maintained at 1.5% throughout surgery. Core body temperature was maintained at 37° C. by a homeothermic heating blanket. Animals were subjected to MCAo by the intraluminal filament method. The right external carotid artery was ligated, cauterized, and cut, and its branches were coagulated. A 35 mm length of 4-0 nylon monofilament (Ethicon) with a rounded tip was then inserted into the internal carotid artery via the proximal end of the external carotid artery stump. The filament was advanced 20 mm beyond the carotid artery bifurcation with slight resistance was encountered. The tilorone analogues R-10,874-DA, R-11,567-DA, and R-9536-DA were injected 100 mg/kg i.p. 24 h pre-MCAo. Equivalent volume of saline was injected i.p. to control rats. Animals were sacrificed 24 h post-MCAo.

The test system of another assay is HIF-1. Nature of the assay: HIF-luciferase reporter (enolase 1 promoter-luciferase) in stably transfected HT22 cells. The class given is cell-based. The conditions noted are these: HT22 murine hippocampal cells, FIG. 3. The procedure: HT22 murine hippocampal cells were stably transfected with an enolase 1 promoter-luciferase reporter construct and selected with puromycin. Tilorone analogues R-10,874-DA, R-11,567-DA, and R-9536-DA were tested for their ability to activate a HIF-luciferase reporter. Luciferase activity was measured using a Luciferase Assay System (PROMEGA) according to the manufacture's protocol.
Background: In a reporter assay the amount or activity of a reporter protein is the signal.

In assay [1] the test system is hypoxia response element regulated reporter gene. Kind of assay: Hypoxia response element (enolase promoter) luciferase reporter in cortical neurons. The conditions noted are these: 40 μM, positive control, FIG. 5. The class given is cell-based, rat. The method, then:
FIG. 5. A cell permeant, peptide inhibitor of the HIF prolyl 4-hydroxylase, but not a mutant control, induces expression of HIF-dependent genes. […] The low molecular weight P4H inhibitor, FG-0041 (40 μM) was used as a positive control. To determine whether the Tat-HIF/ODD/wt peptide stabilizes HIF-1 leading to activation of HIF-1 dependent gene expression, the levels of a luciferase reporter gene that is regulated by a hypoxia response element found in the enolase gene promoter was monitored.

Each structure is given as a SMILES string.

As for `CN(C)CC(=O)c1ccc2oc3ccc(C(=O)CN(C)C)cc3c2c1.Cl.Cl.O` [R-11,567-DA, 2,8-bis[dimethylaminoacetyl]dibenzofurin dihydrochloride hydrate], the “expression of HIF-1 target genes in the rat cerebral cortex” value in the assay on HIF-1 target genes is listed as “induce the expression of HIF-1 target genes”. In addition, in the assay with HIF-1, the “HIF-1 transcriptional activity (HIF-luciferase reporter)” value is “increase HIF-1 transcriptional activity”.
`O=C(O)c1c[nH]c2c(ccc3cccnc32)c1=O` [FG-0041]: in assay [1], the “induction of the HIF-dependent reporter gene” value is given as “stimulated”.
With `CN(C)CCOc1ccc2c(=O)c3ccc(OCCN(C)C)cc3oc2c1.Cl.Cl` [R-10,874-DA, 3,6-bis[2-(dimethylamino)ethoxy]-9h-xanthen-9-one dihydrochloride], in the assay on HIF-1 target genes, the “expression of HIF-1 target genes in the rat cerebral cortex” value is “induce the expression of HIF-1 target genes”. The “HIF-1 transcriptional activity (HIF-luciferase reporter)” value in the assay with HIF-1 is given as “increase HIF-1 transcriptional activity”.
